Measurements taken from patent publication EP0768881B1, “ANTI-HIV TRIPLE COMBINATION COMPRISING ZIDOVUDINE, LAMIVUDINE AND LOVIRIDE” (JANSSEN PHARMACEUTICA N.V., priority 1994, dated 1996).

How the values were obtained:
CD4 cells = details: patients receiving established anti-HIV drugs alone; count then decreases again; cited from earlier work
[1] = Pharmacokinetic interaction between components in open case-control study; assay type: in vivo, HIV-1 infected patients; details: between lamivudine and zidovudine or loviride
Procedure: The triple combination of zidovudine (200 mg t.i.d.), lamivudine (300 mg b.i.d.) and loviride (100 mg t.i.d.) versus the double combination of zidovudine (200 mg t.i.d.) and loviride (100 mg t.i.d.) was assessed in an open case-control study. Twenty HIV-1 infected patients with a positive p24 antigen test at baseline were included. Both combinations were well tolerated. Serious drug-induced safety-related abnormalities were not observed. […] The median CD4 count (% versus baseline) during therapy in the group of patients treated with the triple combination were compared with the median CD4 count in the group of patients treated with the double combination in Table 1. The median p24 antigen count (% versus baseline) of the group of patients treated with the triple combination were compared with the median p24 antigen count of the group of patients treated with double combination in Table 2.

Nc1ccn([C@H]2CS[C@@H](CO)O2)c(=O)n1 [lamivudine, (-)-2',3'-dideoxy-3'-thiacytidine]
CD4 count increase (CD4 cells): about 20% | pharmacokinetic interaction [1]: No clinically relevant pharmacokinetic interaction

Cc1cn([C@H]2C[C@H](N=[N+]=[N-])[C@@H](CO)O2)c(=O)[nH]c1=O [zidovudine, 3'-azido-3'-deoxythymidine]
CD4 count increase (CD4 cells): about 20%
